We go through two compounds from patent US20090131437A1, “DISUBSTITUTED UREAS AS KINASE INHIBITORS” (CORIUM INTERNATIONAL, INC., priority 2005, published 2009).

`CC(C)(C)c1cc(NC(=O)Nc2ccc(Oc3cc(N)ncn3)cc2F)n(-c2ccc(F)cc2)n1` [Example 14, 1-[4-(6-Amino-pyrimidin-4-yloxy)-2-fluoro-phenyl]-3-[5-tert-butyl-2-(4-fluoro-phenyl]-2H-pyrazol-3-yl]-urea]: the melting point (in general, the temperature, or range, at which the solid turns liquid) was 141 to 142 °C.
For `CNc1cc(Oc2ccc(NC(=O)Nc3cc(C(C)(C)C)nn3-c3cccc(C(=O)N4CCN(C)CC4)c3)cc2)ncn1` [Example 15, 1-{5-tert-Butyl-2-[3-(4-methyl-piperazine-1-carbonyl)-phenyl]-2H-pyrazol-3-yl}-3-[4-(6-methylamino-pyrimidin-4-yloxy)-phenyl]-urea], the melting point fell in the range of 146 to 147 °C.
